Laboratory results from paper PMC9468151, “Identification of a binding site on soluble RANKL that can be targeted to inhibit soluble RANK-RANKL interactions and treat osteoporosis” (Nature Communications, 2022).
Values joined by “and” are separate entries in the source; they are usually repeats but may differ in a detail not shown here. Equal entries are not always repeated.

Assays:
[1] = tested on: RANKL-induced resorption pits; assay: Hydroxyapatite resorption assay; type: cell-based, mouse; conditions: in words
Protocol: BMMs (1 × 10^5 cells/well) were cultured onto 6-well collagen-coated plates and stimulated with 100 ng/mL sRANKL and 10 ng/mL M-CSF for 3 days to generate early stage of osteoclasts began differentiation. Then early-stage osteoclasts were gently harvested using cell dissociation solution, and seeded into OsteoAssay Surface (hydroxyapatite-coated) 24-well plates. Early-stage osteoclasts were continue incubated in a medium containing sRANKL and M-CSF with or without treatment. After 48 h, wells were bleached to remove cells, followed by image acquisition for the measurement of resorbed areas using a Leica microscope. The percentage of surface resorbed was analyzed using ImageJ software.

[2] = Pharmacokinetic studies in rat; type: in vivo; design: plasma concentration-time (fig. S2c): unit not given here; conditions: for Cmax / half-life: Sprague-Dawley; for Cmax / half-life / plasma concentration-time (fig. S2c): rat; for Cmax / half-life / AUC: male SD rats, oral 10 mg/kg, plasma
Protocol: 28-week-old and 280 g∼370 g weight male SD (Sprague Dawley) rats were used for pharmacokinetic (PK) studies. Rats were weighed and divided into groups of 3 rats per group. Compounds S3, S3-05 and S3-15 were dissolved in deionized water and made the concentration to 1 mg/mL. Then rats were oral gavage administrated at the doses of 10 mg/kg for each compound. Blood samples were collected in tubes with heparin sodium at 5 min, 10 min, 20 min, 30 min, 40 min, 60 min, 2 h, 3 h, 4 h, 5.5 h, 7 h, 9 h, 12 h, 16 h, 24 h, 32 h, 40 h, 48 h, time points, with three […] per time point for each compound. Blood samples were centrifuged 2100 × g for 10 min at 4 °C, then the plasma was transferred to a clean microfuge tube. Plasma samples were stored at −80 °C. Additionally, ten rats were used as a control and not treated with compound. Plasma from control mice was used to calibrate LC-MS and correct for matrix effects. Drug concentration in plasma was quantified by LC-MS-based methods. Pharmacokinetic parameters were estimated using Phoenix WinNonlin (version 6.3) (Certara USA, Princeton, New Jersey) from mean plasma concentration-time profiles.

[3] = target: T1, sRANKL (Rattus norvegicus, UniProt Q9ESE2, D175N); assay: Surface plasmon resonance (SPR) assay; type: binding; conditions: immobilized sRANKL, 25 °C
T1 construct: (1) sRANKL (rat 159-318 aa); His6-sumo (N, cleaved yes); made in house; host or cells: Escherichia coli BL21 (DE3)
T1 sequence (Q9ESE2 159-318 D175N): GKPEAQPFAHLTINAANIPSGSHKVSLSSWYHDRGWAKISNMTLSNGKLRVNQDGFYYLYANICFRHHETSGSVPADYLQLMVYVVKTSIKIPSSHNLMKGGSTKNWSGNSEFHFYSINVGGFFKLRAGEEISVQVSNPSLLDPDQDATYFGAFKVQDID
Protocol: A ProteOn XPR36TM SPR instrument (BioRad Hercules, CA) was used for carrying out SPR assays. sRANKL protein in PBS buffer, pH 7.4, was diluted to 20 nM in 10 mM sodium acetate buffer, pH 5.5 and immobilized in parallelflow channels of a the EDAC/Sulfo-NHS activated surface of a GLH biosensor chip (Bio-Rad) with an amine coupling kit (Bio-Rad). The surface was blocked with 1 M ethanolamine. The final immobilization level for sRANKL was approximately 14,000 RU. A blank immobilization channel in the same GLH biosensor chip was also activated with EDAC/Sulfo-NHS and blocked with 1 M ethanolamine to use as a reference.
Biosensor binding experiments were conducted in filtered and degassed running buffer (PBS containing 0.005% Tween-20, pH 7.4) at 25 °C. Compounds was dissolved in 100% DMSO in appropriate different series concentrations of stock solutions. Before detecting, compounds were diluted in six or five concentrations with running buffer and ensured that the content of DMSO contained in each detected concentration was consistent. Compounds in different concentrations were injected simultaneously at a flow rate at […] for 180 s and 120 s for the association phase, followed by 180 s for the disassociation. Following the compound injection, the chip surface was regenerated with 40 s pulses of 0.85% H3PO4 and running buffer.
ProtedOn Manager 2.0. was used for data analysis. Each set of sensorgrams was globally analyzed using the 1:1 Langmuir binding model to obtain the kinetic rate constants (Kon and Koff). Global kinetic rate constants (ka and kd) were derived for each reaction, and the equilibrium dissociation constant, KD, was calculated using the equation KD = kd/ka.

[4] = tested on: OVX rats; assay: Osteoporosis biomarkers determination in rat serum (ELISA); type: in vivo; design: OCN / RANKL / PINP / CTX-I / Glu-OCN: unit not given here; conditions: serum; OVX + compound; individual animals
Protocol: Change of rat osteoporosis biomarkers after treating with S3-15 were determined by enzyme-linked immunosorbent assay (ELISA). […] serum biomarkers including CTX-I (C-terminal telopeptide of type I collagen), OC(Osteocalcin), PINP (Procollagen I N-Terminal propeptide), and RANKL(Receptor activator of nuclear factor-κB ligand). Rat blood was collected from aortaventralis after anesthesia, and centrifuged in 14000 × g at 4 °C to get the serum samples. The protein contents of those biomarkers in serum samples were detected according to manufacturer’s instruction (CTX-I and OC, Systems IDS, UK; RANKL, R&D Systems, USA; PINP, USCN Life Science, Inc., China.).

Row | Structure (SMILES) | bone resorption / RANKL-induced resorption pits [1] | Cmax [2] | half-life [2] | AUC [2] | plasma concentration-time (fig. S2c) ([2]; time 0.083 h) | plasma concentration-time (fig. S2c) ([2]; time 0.167 h) | plasma concentration-time (fig. S2c) ([2]; time 0.333 h) | plasma concentration-time (fig. S2c) ([2]; time 0.5 h) | plasma concentration-time (fig. S2c) ([2]; time 0.667 h) | plasma concentration-time (fig. S2c) ([2]; time 1 h) | plasma concentration-time (fig. S2c) ([2]; time 2 h) | plasma concentration-time (fig. S2c) ([2]; time 3 h) | plasma concentration-time (fig. S2c) ([2]; time 4 h) | plasma concentration-time (fig. S2c) ([2]; time 5.5 h) | plasma concentration-time (fig. S2c) ([2]; time 7 h) | plasma concentration-time (fig. S2c) ([2]; time 9 h) | plasma concentration-time (fig. S2c) ([2]; time 12 h) | plasma concentration-time (fig. S2c) ([2]; time 16 h) | plasma concentration-time (fig. S2c) ([2]; time 24 h) | plasma concentration-time (fig. S2c) ([2]; time 48 h) | also measured
1 | CCOC(=O)c1sc(NC(=O)/C(=N/Nc2ccc(O)cc2C(=O)O)C(C)=O)nc1C [S3-05] | suppresses RANKL-induced resorption | 60 ± 10 ng/mL | 10.6 ± 2.31 h | 0.38± 0.23 hr*ug/m | 0.0241 and 0.0344 and 0.0141 | 0.091 and 0.0772 and 0.0497 | 0.07 and 0.0598 and 0.0834 | 0.063 and 0.055 and 0.0901 | 0.057 and 0.0597 and 0.0836 | 0.0458 and 0.0351 and 0.0779 | 0.0356 and 0.0153 and 0.0386 | 0.0376 and 0.0287 and 0.0316 | 0.0238 and 0.027 and 0.0298 | 0.0163 and 0.0195 and 0.0418 | 0.0115 and 0.0105 and 0.0613 | 0.0058 and 0.0107 and 0.0452 | 0.0058 and 0.0222 and 0.0307 | 0.0077 and 0 and 0.0286 | 0.0024 and 0.0688 and 0.0143 | 0.0008 and 0.0021 and 0.0027 | Kd [3]: 23.6 µM; CTX-I [4]: 12.9391 and 9.961 and 23.5145 and 16.5322 and 12.0463 and 14.1264 and 13.0825 and 21.4762; Glu-OCN [4]: 23.1879 and 10.5179 and 18.8663 and 21.4957 and 14.7477 and 20.9157 and 18.2902 and 26.5413; OCN [4]: 109.522 and 50.9168 and 121.686 and 154.593 and 50.4316 and 135.849 and 58.7802 and 162.173; PINP [4]: 4703.95 and 10142.4 and 4202.52 and 5828.23 and 7980.56 and 6497.2 and 3099 and 3185.01; RANKL [4]: 183 and 172.091 and 217.546 and 201.182 and 228.454 and 173.909 and 175.727 and 170.273
2 | CCOC(=O)c1sc(NC(=O)/C(=N/Nc2ccccc2C(=O)O)C(C)=O)nc1C [S3, (E)-2-(2-(1-((5-(ethoxycarbonyl)-4-methylthiazol-2-yl)amino)-1,3-dioxobutan-2-ylidene) hydrazinyl) benzoic acid] | suppresses RANKL-induced resorption | 1430 ± 650 ng/mL | 7.51 h | 5.67± 3.48 hr*ug/m | 1.351 and 0.4444 and 0.2871 | 2.528 and 0.9092 and 0.8091 | 3.09 and 1.211 and 2.048 | 3.054 and 1.206 and 2.481 | 2.576 and 1.333 and 1.703 | 1.712 and 1.674 and 1.242 | 1.693 and 1.071 and 0.7425 | 1.218 and 0.6709 and 0.4108 | 1.2291 and 0.8619 and 0.3316 | 0.4965 and 0.6324 and 0.178 | 0.6171 and 0.2252 and 0.1625 | 0.8173 and 0.544 | 0.5875 and 0.2812 and 0.1945 | 1.063 and 0.3858 and 0.544 | 1.148 and 0.1582 and 0.2706 | 0.06761 and 0.02244 and 0.00409 | Kd [3]: 34.8 µM; CTX-I [4]: 21.3236 and 22.8572 and 16.6793 and 10.172 and 21.7818 and 24.1752 and 24.2142 and 25.7828; Glu-OCN [4]: 19.4432 and 20.3365 and 14.3331 and 16.8798 and 23.559 and 26.5413 and 32.3597 and 27.0763; OCN [4]: 79.4709 and 101.933 and 71.1854 and 74.676 and 124.633 and 154.593 and 174.247 and 198.288; PINP [4]: 3388.13 and 10860 and 11369.2 and 5541.99 and 4144.03 and 7092.56 and 5050.08 and 5955.78; RANKL [4]: 139.364 and 152.091 and 195.727 and 181.182 and 193.909 and 213.909 and 163 and 128.454
